Data from patent US11351102B2, “Plant actives and their anti-pollution effects thereof” (SAMI-SABINSA GROUP LIMITED, priority 2019, dated 2022).

How the values were obtained:
[1] = tested on: Human HaCaT keratinocyte cells; assay: Protection against polycyclic aromatic hydrocarbons (BaP) in the presence of UVA, neutral red uptake; assay type: cell-based; settings: for % Protection against BaP: individual active, UVA-BaP
Text: Polycyclic aromatic hydrocarbons (PAHs) are a class of mutagenic and tumorigenic environmental contaminants. PAHs are widespread in the environment produced from incomplete combustion of natural materials and tobacco smoke (Connell, D. W.; Hawker, D. W.; Warne, M. J.; Vowles. P. P.; Polycyclic aromatic hydrocarbons (PAHs). In Introduction into Environmental Chemistry (McCombs. K., and Starkweather, A. W., eds), 1997, pp. 205-217, CRC Press LLC, Boca Raton, Fla. 2. Shaw, G. R.; Connell, D. W.: Prediction and monitoring of the carcinogenicity of polycyclic aromatic compounds (PACs). Rev. Environ. Contam. Toxic., 1994, 135, 1-62.) PAHs themselves are biologically inert and require metabolic activation. in order to exert genotoxicity PAHs absorb light in the UVA region, react with oxygen or other molecules to generate reactive intermediates (Yu H, Xia Q, Yan J, et al. Photoirradiation of polycyclic aromatic hydrocarbons with UVA light—a pathway leading to the generation of reactive oxygen species, lipid peroxidation, and dna damage. Int J Environ Res Public Health. 2006; 3:348-354) Thus, PAHs can be “activated” by light irradiation to cause photo-induced cytotoxicity. Thus photoirradiation of PAHs with UVA irradiation represents a pollutant which causes cytotoxicity and DNA damage.
Human HaCaT keratinocyte cells were seeded at a density of 1×10^4 cells/well in 96 well plates. Cells were allowed to adhere for overnight. They were pretreated with Benzo(a)pyrene a PAH at 0.5 mM concentration along with different concentrations of plant actives for 50 minutes, exposed to UVA at an intensity of 17 Joules m2. Cells were washed with sterile buffer and fresh culture medium (2% of FBS) with respective concentrations of plant actives were added followed by incubation for 24 hours at 37° C. in a CO2 incubator. Neutral Red (25 μg/mL) (3-amino-7-dimethylamino-2-methylphenazine hydrochloride), was added to the cells for 3 hours. The uptake of NR by the cells was determined by lysing the cells and reading the absorbance at 540 nm in a Tecan microplate reader (TECAN Ltd, Männedorf, Switzerland)

[2] = tested on: Human HaCaT keratinocyte cells/mouse fibroblast cells; assay: ROS assay (DCFH-DA) after exposure to heavy metals, UVA or UVB; assay type: cell-based
Text: A cell permeable, non-fluorescent dye, 2′,7′-dichlorofluorescein diacetate (DCFH-DA) enters the cell and the acetate group on DCFH-DA is cleaved by cellular esterases, trapping the non-fluorescent DCFH inside the cell. Subsequent oxidation by reactive oxygen species generated in the cells, yields the fluorescent DCF which can be detected at 485/520 Ex:Em wavelength. The scavenging activity of sample is indicated by the decrease in fluorescence when compared to the control without antioxidant.
Human HaCaT keratinocyte cells/mouse fibroblast cells were maintained in DMEM containing 25 mM glucose with 10% heat-inactivated fetal calf serum with antibiotics at 37° C. and 5% CO2. When the cells were 70-80% confluent, they were trypsinized, washed and seeded in 96 well plates at a density seeded at a density of 5×10^4 cells/well. Cells were allowed to adhere for overnight. Cells were pretreated with varying non toxic concentrations of different plant actives for 60 minutes before exposing to the pollutant. Cells were exposed to the following pollutants in the presence of plant actives.
UVA intensity of 15 Joules/m2 for 60 mins,
UV-B intensity of 4.6 Joule/m2 for 10 mins
Heavy metals (Cobalt chloride and Lead Nitrate at 0.25 mm each) for 6 hours
Intracellular ROS was determined after the specific treatment period by adding freshly prepared DCFH-DA reagent to all the wells at a concentration of 10 μg/well and incubated at 37° C. for 30 mins. The fluorescence was recorded at a wavelength of 485:520 (Ex:Em) nm in BMG FluoStar Optima microplate reader.

[3] = tested on: superoxide dismutase (SOD); assay: Antioxidant assay: superoxide dismutase (SOD) activity in cell lysate, WST-1 method; assay type: cell-based, Human; settings: UV-exposed keratinocytes
Experimental: (§1) Cellular anti-oxidants are depleted by pollutants. The ability of plant actives to increase these anti-oxidant enzymes in the cells was studied in vitro. Human HaCaT keratinocyte cells were seeded at a density of 5×10^5 cells, well in 6 well plates. The cells were pretreated for one hour with plant actives and exposed to UVA intensity of 17 Joules/m2 for 50 mins. Cells were washed with sterile buffer and fresh culture medium (2% of FBS) with respective concentrations of plant actives were added followed by incubation for 24 hours at 37° C. in a CO2 incubator. Cell lysate were prepared and superoxide dismutase (SOD) levels and glutathione peroxidase (GPx) were estimated.
The activity of SOD in the cell lysate was measured by WST-1 method using a kit as per the manufacturer's instructions (Elabsciences). Xanthine Oxidase (XO) can catalyze WST-1 react with O2. —to generate a water-soluble formazan dye. SOD can catalyze the disproportionation of superoxide anions, so the reaction can be inhibited by SOD, and the activity of SOD is negatively correlated with the amount of formazan dye. Therefore, the activity of SOD can be determined by the colorimetric analysis of WST-1 products.

[4] = tested on: glutathione peroxidase (GPx); assay: Antioxidant assay: glutathione peroxidase (GPx) activity in cell lysate; assay type: cell-based, Human; settings: UV-exposed keratinocytes
Experimental: as §1
Glutathione peroxidase activity was determined according to the method of Hafeman et al. (1974). Glutathione peroxidase degrades H2O2 in presence of glutathione (GSH) thereby depleting it. GSH remaining is measured using DTNB, which gives a colored complex.
To a volume of 100 μl of cell lysate, 0.2 mM GSH, 0.05 mM H2O2 and 1 mM NaN3 in a total volume of 250 μl with 1M sodium phosphate buffer (pH 7.0). The reaction was incubated at 37° C. for 10 min and stopped by adding 50 μl of 25% TCA. […] The intensity of yellow color formation was measured at 412 nm after incubation at 37° C. for 10 min The enzyme activity was expressed as units/mg protein.

IL-8 = assay: Anti-inflammatory activity: IL8 in assay supernatants by ELISA; assay type: cell-based
Experimental: IL8 in the assay supernatants were measured using Duoset ELISA kit (R & D systems, Cat No. DY208)

[5] = DPPH free radical scavenging assay
Text: Reactive oxygen species (ROS) including superoxide, hydroxyl, peroxyl, and alkoxy radicals are produced by normal metabolic processes. Under normal condition, these free radicals are scavenged by the cellular anti-oxidants and remain in equilibrium. Radiations, toxins and pollutants increase the ROS which can induce oxidative damage to biomolecules such as lipids, nucleic acids, proteins and carbohydrates. These ROS induced damage causes skin irritation, inflammation, ageing, cancer and many other diseases, α, α-diphenyl-β-picrylhydrazyl (DPPH) free radical scavenging method is one of the first approach for evaluating the antioxidant potential of a compound.
Reagents: 0.1 mM of DPPH in ethanol, 0.1M phosphate buffered saline (pH 7.4)
DPPH is a stable free radical in a methanolic solution with an absorbance at 520 nm. If the free radicals are scavenged by an anti oxidant molecule, the resulting solution appears yellow. The hydrogen atoms or electrons donation ability of the extracellular metabolite was measured by the bleaching of purple coloured DPPH methanol solution.
Different concentrations of various plant actives were diluted in methanol. For the DPPH radical scavenging assay, 20 μL of different concentration of sample was mixed with 180 μL of DPPH in methanol in a 96 well plate following the method as described earlier (Clarke et al., 2013). The plate was kept in the dark for 15 min. after which the absorbance of the solution was measured at 540 nm using a microplate reader (TECAN Ltd, Männedorf. Switzerland). Blanks (DMSO, methanol) and standard (TBHQ solution in methanol) were recorded simultaneously. The extracts were screened with variable concentrations to establish the inhibition concentration (IC50, the concentration reducing DPPH absorbance by 50%).
The free radical scavenging activity was calculated as follows.
[formula] Where, B=Absorbance of reference solution (OD of DPPH) C=Absorbance of reference solution blank (OD of Methanol only) S=Absorbance of test solution C=Absorbance of test solution blank

[6] = tested on: Collagenase Type IV from Clostridium histolyticum; assay: Anti-collagenase activity (DQ gelatin, fluorescence); assay type: biochemical
Text: Collagenase is one of the matrix metalloprotease, which digest collagen and other components of the extra cellular matrix (ECM). The ECM serves as a scaffold to stabilize the skin structure, and also helps in proliferation and metabolic functions of the skin cells. Loss of collagen leads to wrinkles and sagging of skin. The principle of the assay of collagenase inhibition is based on the fact that the substrate DQ™ gelatine is conjugated to fluorecein—a fluorescent compound. In DQ™ gelatine, fluorescence is quenched. DQ™ gelatine is efficiently digested by collagenases to yield a fluorescent compound which can be measured. The increase in fluorescence is proportional to enzyme activity. In the presence of an anti-collagenase compound the amount of fluorescence will be decreased for a fixed concentration of enzyme and substrate.
Collagenase Enzyme assay kit (Enzchek® collagenase, gelatinase assay kit, Invitrogen, USA)
The assay was performed in a 96 well black microtitre plate. Type IV from Clostridium histolyticum with DQ gelatin as substrate was used for the assay. Different concentrations of various plant actives were pre incubated with 20 µl of gelatin substrate (12.5 µg/ml). 100 µl of the Collagenase enzyme solution (final concentration—0.4 U/ml) was added and the fluorescence intensity was measured at […] after 30 minutes. Enzyme activity of control (buffer) was recorded
The percentage inhibition is calculated as follows:—
[formula] B—Fluorescence in the presence of enzyme. BC—Fluorescence in the absence of enzyme activity T—Fluorescence of enzyme activity in the presence of inhibitor TC—Fluorescence of the inhibitor alone

Q: Which “% Protection against BaP” value ([1]; 2.5 μgml) does the source give for `COc1cc(/C=C/c2ccc(O)cc2)cc(OC)c1` [Pterostilbene, pterostilbene] here?
A: No activity

Q: Which “protection against UVA+BaP” value ([1]; concentrations of 3.12-12.5 μg/ml) does the source give for `Oc1cc(O)cc(/C=C/c2ccc(O)cc2O)c1` [Oxyresveratrol, oxyresveratrol] here?
A: dose dependant protection

Q: And the “% Protection against BaP” value ([1]; 6.25 μg/ml)?
A: 28.04%

Q: And the “ROS generated by exposure to UVA” value ([2]; UVA 60 mins)?
A: reduced the ROS

Q: What about the “ROS generated by exposure to UVB” value ([2]; UVB 10 mins) of the same compound?
A: reduced the ROS

Q: And the “ROS generated by exposure to heavy metals” value ([2]; heavy metals (cobalt chloride and lead nitrate) 6 hours)?
A: reduced the ROS

Q: And the superoxide dismutase activity [3]?
A: restored normal enzyme activity

Q: And the superoxide dismutase activity ([3]; listed as 95% oxyresveratrol)?
A: dose dependant increase

Q: What about the glutathione peroxidase activity [4] of the same compound?
A: restored normal enzyme activity

Q: What about the glutathione peroxidase activity ([4]; listed as 95% oxyresveratrol) of the same compound?
A: dose dependant decrease

Q: What about the inhibition at 3.125 µg/mL (IL-8; 3.125 μg/ml) of the same compound?
A: 13.3%

Q: What about the inhibition at 6.25 µg/mL (IL-8; 6.25 μg/ml) of the same compound?
A: 18.4%

Q: What about the “DPPH radical scavenging % inhibition” value ([5]; 0.3125 μg/ml) of the same compound?
A: 22.9%

Q: And the “DPPH radical scavenging % inhibition” value ([5]; 0.625 μg/ml)?
A: 42.07%

Q: And the “DPPH radical scavenging % inhibition” value ([5]; 1.25 μg/ml)?
A: 68.63%

Q: What about the “DPPH radical scavenging % inhibition” value ([5]; 2.5 μg/ml) of the same compound?
A: 77.89%

Q: And the “DPPH radical scavenging % inhibition” value ([5]; 5.00 μg/ml)?
A: 84.14%

Q: And the “DPPH radical scavenging IC50” value ([5]; concentration reducing DPPH absorbance by 50%)?
A: 0.61 µg/mL

Q: What about the “Anti-collagenase activity % inhibition” value ([6]; 12.5 μg/ml) of the same compound?
A: 0.05%

Q: And the “Anti-collagenase activity % inhibition” value ([6]; 25 μg/ml)?
A: 9.93%

Q: And the “Anti-collagenase activity % inhibition” value ([6]; 50 μg/ml)?
A: 41.19%

Q: What about the “Anti-collagenase activity % inhibition” value ([6]; 100 μg/ml) of the same compound?
A: 80.92%

Q: With `COc1cc(CCC(=O)CC(=O)CCc2ccc(O)c(OC)c2)ccc1O` [Tetrahydrocurcumin, tetrahydrocurcumin] as the compound, how does the “% Protection against BaP” value ([1]; 5 μg/ml) read?
A: No activity

Q: And the inhibition at 12.5 µg/mL (IL-8; read-out: % inhibition of IL-8)?
A: 6.07%

Q: And the inhibition at 25 µg/mL (IL-8; read-out: % inhibition of IL-8)?
A: 11.7%
